According to PubChem BioAssay (NCI):
“And” between values parts separate entries of the source, which are not always exact repeats. Identical values can stand only once.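 Where inhibition never reached the appropriate level, the endpoint shown equals the highest concentration tested. Otherwise, values were interpolated linearly from a five-concentration, 48-hour dose response in 96-well plates. At the GI50, growth is halved. The concentration for full growth arrest is given as TGI.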

Key:
Assay in all cases: inhibition of tumour cell growth, NCI panel, 48 h
HT29 colon = test system: HT29 colon
MCF7 breast = test system: MCF7 breast
RPMI-8226 leukemia = test system: RPMI-8226 leukemia
OVCAR-4 ovarian = test system: OVCAR-4 ovarian
HS 578T breast = test system: HS 578T breast
CCRF-CEM leukemia = test system: CCRF-CEM leukemia
SF-295 CNS = test system: SF-295 CNS
SNB-19 CNS = test system: SNB-19 CNS
BT-549 breast = test system: BT-549 breast
NCI-H522 lung = test system: NCI-H522 lung

| SMILES | TGI (HT29 colon) | TGI (MCF7 breast) [µM] | TGI (RPMI-8226 leukemia) [µM] | TGI (OVCAR-4 ovarian) [µM] | TGI (HS 578T breast) [µM] | TGI (CCRF-CEM leukemia) [µM] | TGI (SF-295 CNS) | TGI (SNB-19 CNS) | TGI (BT-549 breast) [µM] | TGI (NCI-H522 lung) | GI50 (HT29 colon) | GI50 (MCF7 breast) [µM] | GI50 (RPMI-8226 leukemia) | GI50 (OVCAR-4 ovarian) | GI50 (CCRF-CEM leukemia) [µM] | GI50 (NCI-H522 lung) | GI50 (SF-295 CNS) [µM] | GI50 (SNB-19 CNS) [µM] | GI50 (HS 578T breast) [µM] | GI50 (BT-549 breast) [µM] |
| --- | --- | --- | --- | --- | --- | --- | --- | --- | --- | --- | --- | --- | --- | --- | --- | --- | --- | --- | --- | --- |
| O=NN1CCCS1(=O)=O | > 100 µM | > 100 | > 100 | > 100 | > 100 | > 100 | > 100 µM | > 100 µM | > 100 | – | – | – | – | – | – | – | – | – | – | – |
| Cn1c(=O)n(CC2CS2)c2ccccc21 (stereo not drawn) | > 100 µM | – | > 100 | > 100 | – | > 100 | > 100 µM | > 100 µM | – | > 100 µM | – | – | – | – | – | – | – | – | – | – |
| O=c1oc2cccnc2n1CCCCN1CCN(c2ccccc2)CC1 | > 100 µM | > 100 | > 100 | > 100 | > 100 | > 100 | > 100 µM | > 100 µM | – | > 100 µM | – | – | – | – | – | – | – | – | – | – |
| COC(=O)/C=c1/c2ccccc2n2c1c1ccccc1[n+]2C | 12.8 µM | 26.5 | 9.67 | 15.9 | > 100 | 51.1 | 5.63 µM | > 100 µM | 14.7 | – | – | – | – | – | – | – | – | – | – | – |
| Cn1c2ccc(C3=NCCN3)cc2c2cc(C3=NCCN3)ccc21 | > 100 µM | – | > 100 | > 100 | > 100 | 0.0344 | > 100 µM | > 100 µM | > 100 | > 100 µM | – | – | – | – | – | – | – | – | – | – |
| COc1cc2oc(=O)cc(C)c2cc1OC | > 100 µM | > 100 | > 100 | > 100 | > 100 | > 100 | > 100 µM | > 100 µM | – | – | – | – | – | – | – | – | – | – | – | – |
| N#C/C(C(=O)Nc1ccccc1)=C(/N)N1CCCCC1 | > 100 µM | > 100 | > 100 | – | – | > 100 | > 100 µM | > 100 µM | > 100 | – | – | – | – | – | – | – | – | – | – | – |
| NNC(=O)Cn1ccnn1 | > 100 µM | > 100 | > 100 | – | – | > 100 | > 100 µM | > 100 µM | > 100 | > 100 µM | – | – | – | – | – | – | – | – | – | – |
| CCOC(=O)CCC(NC(=O)OCc1ccccc1)C(=O)NC(CCC(=O)OCC)C(=O)NC(CCC(=O)OCC)C(=O)NNC(=O)OC(C)(C)C (stereo not drawn) | > 100 µM | > 100 | > 100 | – | > 100 | > 100 | – | > 100 µM | > 100 | – | – | – | – | – | – | – | – | – | – | – |
| CC(=O)Nc1ccc(/C=C2/NC(=S)N(/C=C3\C(=O)Oc4ccccc4C3=O)C2=O)cc1 | > 100 µM | > 100 | > 100 | > 100 | > 100 | > 100 | > 100 µM | > 100 µM | – | > 100 µM | – | – | – | – | – | – | – | – | – | – |
| C=CCc1ccccc1C1CC2(C(=O)OC)OC1C(C(=O)OC)=C2C(=O)OC (stereo not drawn) | > 10 µM | > 10 | > 10 | > 10 | > 10 | > 10 | > 10 µM | > 10 µM | > 10 | – | – | – | – | – | – | – | – | – | – | – |
| CCN(CCCl)c1cccc(NC(=O)c2ccc(C(=O)Nc3cccc(CN(C)C)c3)cc2)c1 | – | 1.09 | 27 | 0.611 | 0.399 | 1.22 | 13.2 µM | 0.887 µM | – | 0.0342 µM | – | – | – | – | – | – | – | – | – | – |
| O=[N+]([O-])c1ccc2nc(/C=C(\O)c3ccc(Cl)cc3)c(/C=C(\O)c3ccc(Cl)cc3)nc2c1 | > 100 µM | > 100 | – | > 100 | – | > 100 | > 100 µM | > 100 µM | > 100 | 60.7 µM | – | – | – | – | – | – | – | – | – | – |
| CCC1(OC(=O)CN)C(=O)OCc2c1cc1n(c2=O)Cc2cc3cc4c(cc3nc2-1)OCO4 (stereo not drawn) | 0.739 µM and 0.281 µM | > 100 | – | – | – | – | 0.0211 µM and < 0.01 µM | 27.3 µM and 3.14 µM | – | 1.43 µM and 0.243 µM | 0.0245 µM and 0.0171 µM | < 0.01 | 0.0253 µM and 0.0231 µM | 0.216 µM and 0.0574 µM | < 0.01 | 0.0531 µM and < 0.01 µM | < 0.01 | < 0.01 | – | – |
| C=C(CCOC)CCC1CCCCC(=C)[C@H]1O (stereo partly drawn) | > 100 µM | > 100 | > 100 | > 100 | > 100 | > 100 | > 100 µM | > 100 µM | – | > 100 µM | – | – | – | – | – | – | – | – | – | – |
| C[PH+](c1nc2ccccc2nc1[PH+](C)C(C)(C)C)C(C)(C)C.C[PH+](c1nc2ccccc2nc1[PH+](C)C(C)(C)C)C(C)(C)C.[Au+].[Cl-] (stereo not drawn) | – | – | 0.245 | 0.77 | 1.75 | 1.5 | – | 1.7 µM | 0.0961 | – | 0.0294 µM | – | 0.0357 µM | 0.0349 µM | 0.0603 | – | – | 0.0453 | 0.0447 | 0.0324 |
| CCOC(=O)c1c(N)sc2c1C(C(=O)OCC)CCC2 (stereo not drawn) | > 100 µM | > 100 | > 100 | – | > 100 | > 100 | – | > 100 µM | > 100 | – | – | – | – | – | – | – | – | – | – | – |
| CC(=O)O[C@H]1CCC2[C@@H]3CCC4NC(=O)C(C#N)C[C@]4(C)C3CC[C@@]21C (stereo partly drawn) | > 10 µM | > 10 | > 10 | > 10 | > 10 | > 10 | > 10 µM | > 10 µM | > 10 | – | – | – | – | – | – | – | – | – | – | – |
